“And” between values parts separate entries of the source, which are not always exact repeats. Identical values can stand only once.
Columns and labels:
[1] = system: cleaved cytokeratin 18 (cCK18); assay: Phase I trial, serum M30 assay; format: in vivo, human
Method: Serum levels of cleaved cytokeratin 18 (cCK18) were assessed using the M30 assay and serum levels of total cytokeratin 18 (CK18) were assessed using the M65 assay (Perviva A.B., Sweden). Assessments of other tumor-specific markers were also evaluated per standard of care.
Given the heterogeneity of the tumor types in the enrolled patients, no widely used biomarker was available to uniformly assay all patient samples. In particular, the serum M30 assay is able to detect a caspase-cleaved form of cytokeratin-18 that occurs during apoptosis, which is useful in a heterogeneous study of solid tumors because most solid tumors express cytokeratin-18. The M30 sandwich ELISA has been used extensively in clinical trials as biomarkers of cell death induced by a variety of different cancer chemotherapeutic agents in a spectrum of different solid tumors. In addition to the serum M30 assay, the M65 sandwich ELISA assay, which has also been used in clinical studies to detect increases in total cytokeratin 18 that can occur with tumor necrosis and disease progression, was used to differentiate tumor apoptosis from necrosis.

[2] = Phase I trial, plasma pharmacokinetics of oral ONC201; settings: for AUC(0-t): AUClast; for Vd/F: Vz/F
[3] = system: human foreskin fibroblasts (HFF), human fetal lung fibroblast (MRC-5) cells, human lung fibroblast cell line (WI-38); settings: 72 hours
[4] = biological target: human MDR1 (Homo sapiens, UniProt P08183); settings: at 200 micromolar
[5] = system: TRAIL; assay: Phase I trial, serum TRAIL ELISA; format: in vivo, human
[6] = Phase I trial, safety and toxicity assessment
[7] = system: 1020 genetically annotated cell lines; assay: Tumor type in vitro sensitivity, GDSC cell lines, cell viability at 72 hours; format: cell-based; settings: tertile of average IC50
Text: The estimated IC50 values were averaged across multiple cell lines for each tumor type. Tumor types were categorized into three different groups that represented tertiles of average IC50 values.

[8] = N=6 patients receiving 625 mg ONC201 every three weeks
[9] = human, in vivo, 625 mg, Mean, N=6 patients receiving 625 mg ONC201 every three weeks
[10] = human, in vivo, 625 mg, Median, N=6 patients receiving 625 mg ONC201 every three weeks
[11] = human, in vivo, 625 mg, Geo. Mean, N=6 patients receiving 625 mg ONC201 every three weeks
[12] = Pat # 1, NSCLC, 125 mg every three weeks, dose escalation phase
[13] = Pat # 2, Appendiceal adenocarcinoma, 250 mg every three weeks, dose escalation phase
[14] = Pat # 3, Uterine cancer, 375 mg every three weeks, dose escalation phase
[15] = Pat # 4, Renal cancer, 500 mg every three weeks, dose escalation phase
[16] = Pat # 5, Breast cancer, 625 mg every three weeks, dose escalation phase
[17] = Pat # 6, Prostate adenocarcinoma, 625 mg every three weeks, dose escalation phase
[18] = Pat # 7, Small cell lung cancer, 625 mg every three weeks, dose escalation phase
[19] = Pat # 8, Colon adenocarcinoma, 625 mg every three weeks, dose escalation phase
[20] = Pat # 9, Spindle cell sarcoma, 625 mg every three weeks, dose escalation phase
[21] = Pat # 10, Ovarian, 625 mg every three weeks, dose escalation phase
[22] = Pat # 11, Uterine cancer, 625 mg every three weeks, expansion phase
[23] = Pat # 13, Ovarian cancer, 625 mg every three weeks, expansion phase
[24] = Pat # 14, Gall bladder cancer, 625 mg every three weeks, expansion phase
[25] = Pat # 15, Desmoplastic small round cell tumor (DSRCT), 625 mg every three weeks, expansion phase
[26] = Pat # 16, Colon cancer, 625 mg every three weeks, expansion phase
[27] = Pat # 17, Prostate adenocarcinoma, 625 mg every three weeks, expansion phase
[28] = Pat # 18, Ovarian cancer, 625 mg every three weeks, expansion phase
[29] = Pat # 19, Prostate adenocarcinoma, 625 mg every three weeks, expansion phase
[30] = Pat # 20, Uterine Cancer, 625 mg every three weeks, expansion phase

human MDR1, sequence (P08183 whole entry): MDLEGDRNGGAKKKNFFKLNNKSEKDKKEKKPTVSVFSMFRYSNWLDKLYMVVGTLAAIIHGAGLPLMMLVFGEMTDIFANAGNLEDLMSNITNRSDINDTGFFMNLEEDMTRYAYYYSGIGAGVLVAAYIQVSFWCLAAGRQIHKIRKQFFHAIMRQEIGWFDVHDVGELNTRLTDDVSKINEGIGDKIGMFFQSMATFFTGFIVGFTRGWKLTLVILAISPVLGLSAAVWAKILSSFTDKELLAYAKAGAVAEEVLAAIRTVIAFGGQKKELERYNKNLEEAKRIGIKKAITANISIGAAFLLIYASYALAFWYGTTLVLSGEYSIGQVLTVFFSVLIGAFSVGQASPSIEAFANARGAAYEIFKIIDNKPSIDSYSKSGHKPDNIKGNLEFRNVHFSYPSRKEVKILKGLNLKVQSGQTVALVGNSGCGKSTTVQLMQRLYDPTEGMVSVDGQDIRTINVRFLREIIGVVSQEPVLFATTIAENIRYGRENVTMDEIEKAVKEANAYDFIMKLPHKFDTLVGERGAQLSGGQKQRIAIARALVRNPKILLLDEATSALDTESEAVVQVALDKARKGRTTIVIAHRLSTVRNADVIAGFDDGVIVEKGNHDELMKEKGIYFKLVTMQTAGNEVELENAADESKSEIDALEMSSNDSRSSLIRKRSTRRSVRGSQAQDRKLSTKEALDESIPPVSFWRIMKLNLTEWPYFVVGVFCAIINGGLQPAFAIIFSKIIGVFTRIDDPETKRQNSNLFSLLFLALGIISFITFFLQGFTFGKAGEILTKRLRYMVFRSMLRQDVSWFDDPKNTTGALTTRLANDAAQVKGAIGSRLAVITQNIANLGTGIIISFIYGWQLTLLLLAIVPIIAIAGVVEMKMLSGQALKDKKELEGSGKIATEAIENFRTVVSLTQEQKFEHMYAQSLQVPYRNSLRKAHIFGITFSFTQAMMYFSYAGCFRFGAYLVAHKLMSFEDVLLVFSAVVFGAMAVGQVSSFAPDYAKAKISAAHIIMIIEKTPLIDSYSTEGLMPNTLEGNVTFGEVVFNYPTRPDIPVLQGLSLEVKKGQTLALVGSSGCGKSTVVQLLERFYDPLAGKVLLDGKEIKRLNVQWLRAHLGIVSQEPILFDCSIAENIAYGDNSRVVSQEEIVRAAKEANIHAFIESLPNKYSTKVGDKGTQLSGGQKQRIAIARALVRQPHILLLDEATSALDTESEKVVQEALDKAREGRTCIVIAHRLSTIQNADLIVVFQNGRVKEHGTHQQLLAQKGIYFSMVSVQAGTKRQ

Cc1ccccc1CN1C(=O)C2=C(CCN(Cc3ccccc3)C2)N2CCN=C12 [ONC201, 7-benzyl-4-(2-methylbenzyl)-2,4,6,7,8,9-hexahydroimidazo [1,2-a]pyrido[3,4-e]pyrimidin-5(1H)-one]
M30 Induction (>50%) ([1]; Pat # 1, NSCLC, 125 mg): No
M30 Induction (>50%) ([1]; Pat # 2, Appendiceal cancer, 250 mg): No
M30 Induction (>50%) ([1]; Pat # 3, Uterine cancer, 375 mg): Yes
M30 Induction (>50%) ([1]; Pat # 4, Renal cancer, 500 mg): No
M30 Induction (>50%) ([1]; Pat # 5, Breast cancer, 625 mg): Yes
M30 Induction (>50%) ([1]; Pat # 6, Prostate adenocarcinoma, 625 mg): Yes
M30 Induction (>50%) ([1]; Pat # 7, Small cell lung cancer, 625 mg): Yes
M30 Induction (>50%) ([1]; Pat # 8, Colon adenocarcinoma, 625 mg): Yes
M30 Induction (>50%) ([1]; Pat # 9, Spindle cell sarcoma, 625 mg): No
M30 Induction (>50%) ([1]; Pat # 10, Ovarian, 625 mg): No
number of patients with induction in the M30 assay ([1]; dose escalation phase, after a single dose, most often on day 21 post-treatment): Four
AUC, Min [2, 8]: 13868 h · ng/m
CL/F, Geo. Mean [2, 8]: 25.41 L/h
CL/F, Max [2, 8]: 45.07 L/h
CL/F, Mean [2, 8]: 27.19 L/h
CL/F, Median [2, 8]: 24.83 L/h
CL/F, Min [2, 8]: 14.03 L/h
Cmax, Max [2, 8]: 7470 ng/mL
Cmax, Min [2, 8]: 1530 ng/mL
Tlag, Max [2, 8]: 0.30 h
Tlag, Mean [2, 8]: 0.05 h
Tlag, Median [2, 8]: 0.00 h
Tlag, Min [2, 8]: 0.00 h
Tmax, Max [2, 8]: 3.95 h
Tmax, Min [2, 8]: 0.37 h
t1/2, Max [2, 8]: 12.55 h
t1/2, Min [2, 8]: 7.71 h
λZ, Geo. Mean [2, 8]: 0.073 h⁻¹
λZ, Max [2, 8]: 0.090 h⁻¹
λZ, Mean [2, 8]: 0.074 h⁻¹
λZ, Median [2, 8]: 0.072 h⁻¹
λZ, Min [2, 8]: 0.055 h⁻¹
concentration at 24 h ([2]; human, in vivo): 0.9 µM
Vd ([2]; human, in vivo, 625 mg): 381 L
AUC ([2]; human, in vivo, 625 mg, AUC, Geo. Mean, N=6 patients receiving 625 mg ONC201 every three weeks): 24600 ng·h/mL
AUC ([2]; human, in vivo, 625 mg, AUC, Mean, N=6 patients receiving 625 mg ONC201 every three weeks): 26300 ng·h/mL
AUC ([2]; human, in vivo, 625 mg, AUC, Median, N=6 patients receiving 625 mg ONC201 every three weeks): 25600 ng·h/mL
AUC(0-t) [2, 9]: 25500 ng·h/mL
AUC(0-t) [2, 10]: 24300 ng·h/mL
Cmax ([2]; human, in vivo, 625 mg, Cmax, Geo. Mean, N=6 patients receiving 625 mg ONC201 every three weeks): 2890 ng/mL
Cmax ([2]; human, in vivo, 625 mg, Cmax, Mean, N=6 patients receiving 625 mg ONC201 every three weeks): 3310 ng/mL
Cmax ([2]; human, in vivo, 625 mg, Cmax, Median, N=6 patients receiving 625 mg ONC201 every three weeks): 2720 ng/mL
AUC ([2]; human, in vivo, 625 mg, Mean AUC, top dose cohort (625 mg)): 26300 ng·h/mL
Tmax [2, 11]: 1.34 h
Tmax [2, 9]: 1.79 h
Tmax [2, 10]: 1.91 h
Vd/F [2, 11]: 348 L
Vd/F [2, 9]: 381 L
Vd/F [2, 10]: 404 L
Cmax ([2]; human, in vivo, 625 mg, mean Cmax, top dose cohort (625 mg), first dose): 3310 ng/mL
half-life ([2]; human, in vivo, 625 mg, mean t1/2, top dose cohort (625 mg)): 9.62 h
half-life ([2]; human, in vivo, 625 mg, t1/2, Geo. Mean, N=6 patients receiving 625 mg ONC201 every three weeks): 9.49 h
half-life ([2]; human, in vivo, 625 mg, t1/2, Mean, N=6 patients receiving 625 mg ONC201 every three weeks): 9.62 h
half-life ([2]; human, in vivo, 625 mg, t1/2, Median, N=6 patients receiving 625 mg ONC201 every three weeks): 9.6 h
Cmax ([2]; human, in vivo, Cmax, plasma, as quoted for the CYP margin): 9 µM
AUC ([2]; human, in vivo, po, 625 mg, AUC, oral ONC201, PK analysis): 25000 ng·h/mL
Cmax ([2]; human, in vivo, po, 625 mg, Cmax, 625 mg (RP2D) orally every 3 weeks): 1500 ng/mL to 7500 ng/mL and 3.9 µM to 19.4 µM
half-life ([2]; human, in vivo, po, 625 mg, half-life, oral ONC201, PK analysis): 9.6 h
dose at which plasma concentrations / systemic exposure (AUC, Cmax) saturated ([2]; oral, dose escalation 125-625 mg): 375 mg
cell viability of normal cells ([3]; about 1-5 mg/mL compound (1)): at least 75%
viability of normal cells ([3]; beyond about 5 mg/mL compound (1)): about 75%
inhibitor of MDR1 [4]: inhibitor
increase in serum TRAIL ([5]; half of the patients, mostly peaked within the first 24 hours of drug administration): ~20%
number of patients with serum TRAIL induction ([5]; serum soluble TRAIL): 2
only adverse event possibly attributed to ONC201, expansion phase ([6]; 10 patients, 625 mg every 3 weeks): vomiting in one patient
only adverse event possibly attributed to ONC201, dose escalation phase ([6]; 10 patients, 125-625 mg every 3 weeks): low grade fever in one patient
Adverse Events Grade 1 [6, 12]: Fever
Adverse Events Grade 2-4 [6, 12]: 0
Adverse Events Grade 1 [6, 13]: 0
Adverse Events Grade 2-4 [6, 13]: 0
Adverse Events Grade 1 [6, 14]: 0
Adverse Events Grade 2-4 [6, 14]: 0
Adverse Events Grade 1 [6, 15]: 0
Adverse Events Grade 2-4 [6, 15]: 0
Adverse Events Grade 1 [6, 16]: 0
Adverse Events Grade 2-4 [6, 16]: 0
Adverse Events Grade 1 [6, 17]: 0
Adverse Events Grade 2-4 [6, 17]: 0
Adverse Events Grade 1 [6, 18]: 0
Adverse Events Grade 2-4 [6, 18]: 0
Adverse Events Grade 1 [6, 19]: 0
Adverse Events Grade 2-4 [6, 19]: 0
Adverse Events Grade 1 [6, 20]: 0
Adverse Events Grade 2-4 [6, 20]: 0
Adverse Events Grade 1 [6, 21]: 0
Adverse Events Grade 2-4 [6, 21]: 0
Adverse Events Grade 1 [6, 22]: 0
Adverse Events Grade 2-4 [6, 22]: 0
Adverse Events Grade 1 ([6]; Pat # 12, Uterine cancer, 625 mg every three weeks, expansion phase): 0
Adverse Events Grade 1 [6, 23]: Vomiting
Adverse Events Grade 2-4 [6, 23]: 0
Adverse Events Grade 1 [6, 24]: 0
Adverse Events Grade 2-4 [6, 24]: 0
Adverse Events Grade 1 [6, 25]: 0
Adverse Events Grade 2-4 [6, 25]: 0
Adverse Events Grade 1 [6, 26]: 0
Adverse Events Grade 2-4 [6, 26]: 0
Adverse Events Grade 1 [6, 27]: 0
Adverse Events Grade 2-4 [6, 27]: 0
Adverse Events Grade 1 [6, 28]: 0
Adverse Events Grade 2-4 [6, 28]: 0
Adverse Events Grade 1 [6, 29]: 0
Adverse Events Grade 2-4 [6, 29]: 0
Adverse Events Grade 1 [6, 30]: 0
Adverse Events Grade 2-4 [6, 30]: 0
drug-related adverse events ([6]; oral 125 to 625 mg every 3 weeks): No Grade >1 drug-related adverse events occurred
recommended phase II dose (RP2D) ([6]; oral, once every 3 weeks): 625 mg
Laboratory studies and physical exams ([6]; phase I patients): did not reveal any drug-related abnormalities
cardiovascular assessments ([6]; phase I patients): no drug-related effects
Tumor Type In Vitro Sensitivity ([7]; tumor type Breast cancer): Low
Tumor Type In Vitro Sensitivity ([7]; tumor type Colon adenocarcinoma): High
Tumor Type In Vitro Sensitivity ([7]; tumor type NSCLC): Med
Tumor Type In Vitro Sensitivity ([7]; tumor type Ovarian): Med
Tumor Type In Vitro Sensitivity ([7]; tumor type Prostate adenocarcinoma): High
Tumor Type In Vitro Sensitivity ([7]; tumor type Renal cancer): Med
Tumor Type In Vitro Sensitivity ([7]; tumor type Small cell lung cancer): High
Tumor Type In Vitro Sensitivity ([7]; tumor type Spindle cell sarcoma): Low
Tumor Type In Vitro Sensitivity ([7]; tumor type Uterine cancer): Med

From patent US11976068B2 (CHIMERIX, INC., priority 2015, dated 2024)
